Patent publication US20140230091A1, “MODIFIED PLANTS WITH INCREASED OIL CONTENT” (BROOKHAVEN SCIENCE ASSOCIATES, LLC, priority 2011, published 2014)

What was measured:
B. napus cells = assay: Quantification of free fatty acid, acyl-ACP and acyl-CoA pools in cells; type: cell-based, Brassica napus; settings: after three hours of Tween-80 feeding
Description: Free fatty acids were extracted from tissue by quenching ˜300 mg of frozen cells in 2 mL boiling isopropanol for 5 min. Once cooled, 2 mL of 0.9% NaCl was added and lipids were extracted twice with 4 mL of hexane. Neutral lipids were separated by TLC and free fatty acids were scraped, made into FAMEs, and analyzed by GC-FID or GC-MS as described above. Acyl-CoAs were extracted from ˜15 mg FW of cells and quantified as previously described (Larson and Graham 2001, Plant J, 25, 115-125). Acyl-ACPs were extracted and quantified as previously described (Kopka, Ohlrogge and Jaworski 1995, Anal Biochem, 224, 51-60) with the following modifications: 1) Internal standards used were 11:0-CoA (Sigma) and 17:0—ACP made from Spinach ACP as previously described (Broadwater and Fox 1999, Protein Expr Purif, 15, 314-326). 2) Fully dissolving TCA precipitated proteins required three extractions with MOPS buffer rather than just one.
1986 Plant Physiol, 82, 771-779). Free fatty acids can be activated by esterification to CoA or ACP before being deposited in cellular lipids. Steady state pools acyl-ACP and acyl-CoA as well as free fatty acids (FFA) were measured in cells fed Tween-80. After three hours of feeding, 18:1 FFA appeared where there was none detected in untreated cells (FIG. 9a). […] In a separate experiment designed to distinguish the incorporation of fatty acids from Tween from secondary effects of feedback inhibition, FFA and acylACPs were analyzed in cells fed ^13C-oleoyl-Tween. […] First, the in vivo concentrations of these intermediates were calculated based on the range of values in FIG. 9 and the water content of the cells. […] However, considering that acyl-ACPs are restricted to the plastid, the volume of which in developing embryos was determined to be 10% of the cell (Mansfield and Briarty 1992, Can J Bot, 70, 151-164), the estimate increased to 5-10 μM. […] Thioesterase activity was measured using the same conditions as the ACCase assay. […]

[1] = test system: Brassica napus cv Jet Neuf suspension cell cultures; assay: Cell culture growth and analysis of B. napus suspension cells fed Tween-80; type: cell-based; settings: concentrations up to 10 mM
Description: Brassica napus cv Jet Neuf suspension cell cultures were grown in NLN medium (Lichter 1982, Z. Pflanzenphysiol, 105, 427-434) with modifications (Shi et al. 2008, Plant Cell Tiss Org, 92 131-139). Cells were grown shaking at 160 rpm at 25° C. in either 50 mL or 100 mL volumes (in 125 mL or 250 mL flasks, respectively) under constant fluorescent light at 50 […]. Medium was refreshed every 48 h for experiments lasting longer than two days. Tween-esters were obtained from Sigma (St. Louis, Mo. USA). A 150 mM stock solution was made by dissolving 9.8 g in 50 mL of water and it was filter sterilized before addition to cultures. Subculturing was done every eight days and new cultures were inoculated with about 200 mg of cells. Cells were harvested by filtering with a Buchner funnel, were rinsed three times with distilled water, and were frozen immediately in liquid N2 in preweighed aluminum foil pouches. Dry weight to fresh weight ratio was determined by lyophilizing a known fresh weight of cells. For SDS-PAGE, proteins were extracted in 3 volumes (w/v) of 50 mM Tris-Cl, pH 7.5, 10 mM KCl, 5 mM MgCl2, 1 mM EDTA, 1 mM DTT, 0.1% Triton X-100, and were quantified by Bradford assay.
In order to study the feedback regulation of fatty acid synthesis it was necessary to first establish conditions where fatty acids could be fed while minimizing any negative pleiotropic effects. […]

Question: With Tween-80 as the substance, how does the “change in amount of 18:1-ACP and 18:1-CoA” value (B. napus cells) read?
Answer: double in amount

Question: What about the “effect on growth rate” value [1] of the same substance?
Answer: no effect
